Data: US20250304623A1, “PEPTIDES FOR INTRACELLULAR DELIVERY” (UNIVERSIDADE DE SANTIAGO DE COMPOSTELA, priority 2022, published 2025)
*: point of attachment. NHNH2 = NN*

Columns and labels:
Assay type in all cases: cell-based
[1] = test system: Hela cells; assay: EGFP mRNA delivery, robotic library screening, HeLa
Experimental: (§1) Cells were seeded in a 96 well plate the day before the experiment at a concentration of 50,000 cell/mL (100 μL/w) in DMEM+10% FBS+1% Gln-Abt. For robotic library screening, the delivery of EGFP-mRNA (from TriLink, fully substituted with 5-methoxyuridine, capped and polyadenylated; TriLink, CleanCap® EGFP mRNA (5moU), ref. L-7201) in six different cell lines was performed. Amphiphilic molecule stock solutions were prepared in DMSO as described above and diluted in DMEM to afford a range of concentrations. The solutions of EGFP-mRNA/amphiphilic molecule complexes were freshly prepared prior to the transfection experiments. 35 μL of the corresponding amphiphile were added to 10 μL of a solution of EGFP-mRNA at 10 ng/μL in DMEM. The mixture was shaken for 30 min at room temperature before the addition to the cells. The cell medium was aspirated, and cells were washed with PBS twice. Cells were covered with 39 μL of DMEM and 11 μL of the complex's solution were added to the cells and incubated for 4 h (final concentration of peptide=2.5, 5 and 10 μM; final concentration of EGFP-mRNA=25 ng/well). After the incubation, the medium was replaced by 100 μL of fresh DMEM supplemented with 10% FBS. The total EGFP fluorescence was quantified after 72 h in a well plate reader. Amphiphile transfection efficiency was compared and normalized to Lipofectamine® MessengerMax efficiency (value of 1 in Tables 1-5 and 7; double underlined numbers). All experiments were done in triplicate.
(§2) Tables 1-7: RLuc (pDNA) or EGFP (mRNA) expression levels were normalized to Lipofectamine reagents (value=1) and expressed as fold-times signal increase. In the case of siRNA, the siRNA treated cells fluorescence was compared with siMOCK control fluorescence, while Cas9-RNP mediated knockout was measured against the fluorescence of untreated cells. In both siRNA and Cas9-RNP, values are expressed as % fluorescence reduction. Amphiphile concentration was 5 μM in all cases. All experiments were performed in triplicate.
(§3) Tables 14-19 show the mean (triplicates) fluorescence intensity measured after the transfection of EGFP mRNA by different amphiphiles at different concentrations in a variety of cell lines. Background fluorescence values, accounted by untreated control cells, were subtracted for processing.

[2] = test system: Hek293 cells; assay: EGFP mRNA delivery, robotic library screening, Hek293
Experimental: as §1, §2, §3

[3] = test system: Hek293 cells; assay: RLuc pDNA delivery, robotic library screening, Hek293
[4] = test system: HCT116 cells expressing EGFP; assay: Cas9-RNP delivery against EGFP (gene editing, plate reader), HCT116
Experimental: To generate an EGFP expressing HeLa cell line, HeLa cells were transfected with EGFP pDNA (pEGFP-C1, Clontech) and stable transfectants were selected with 400 μg/mL of G-418 (Millipore). Green clones were selected by epifluorescence microscopy and tested for EGFP expression stability through several passages. […] All other EGFP-expressing cell lines were obtained in a similar way from parent non-EGFP-expressing cell lines.
Cells expressing EGFP were seeded in a 96 well plate the day before the experiment at a concentration of 50,000 cell/mL (100 μL/w) in DMEM+10% FBS+1% Gln-Abt. For robotic library screening, the delivery of Cas9-RNP against EGFP (RNP designed to knock-out the gene encoding for the enhanced green fluorescent protein (EGFP)) was performed. For RNP assembly, 9.2 μL of crRNA and 9.2 μL of tracrRNA were mixed in 211.6 μL of Nuclease-Free Duplex Buffer (IDT), incubated for 5 min at 95° C. and slowly cooled at rt (see I. Lostalé-Seijo, et al. Peptide/Cas9 nanostructures for ribonucleoprotein cell membrane transport and gene edition, Chem. Sci., 2017). Cas9 protein was dissolved in DMEM at a final concentration of 4 μM and equal volumes of the RNA complex and Cas9 were mixed and incubated for 5 min at rt. 75 μL of the corresponding amphiphile concentrations were added to 5 μL of RNP at 2 μM. The mixture was shaken for 30 min at room temperature before the addition to the cells. The cell medium was aspirated, and cells were washed twice with PBS. Cells were covered with 30 μL of DMEM and 20 μL of the RNP/amphiphile complexes were added to the cells (final peptide concentrations=2.5, 5 and 10 μM; final Cas9-RNP concentration=50 nM) and incubated for 4 h. After the incubation, the medium was replaced by 100 μL of fresh DMEM supplemented with 10% FBS. The total EGFP fluorescence was quantified after 72 h in a plate reader (FIG. 2, Table 1 (right) and Table 6). All experiments were done in triplicate. […]
Tables 26-31 show the mean (triplicates) percentage of gene editing, accounted by GFP fluorescence intensity decrease (% of reduction), measured after the transfection of Cas9-RNP by different amphiphiles at different concentrations in a variety of cell lines. Background values, accounted by untreated control cells, were subtracted for processing.

Substance | mean fluorescence intensity (EGFP mRNA) ([1]; HeLa, Dodecanal, 5 μM) | mean fluorescence intensity (EGFP mRNA) ([1]; HeLa, Myristoleyl, 2.5 μM) | mean fluorescence intensity (EGFP mRNA) ([1]; HeLa, Oleyl, 5 μM) | mean fluorescence intensity (EGFP mRNA) ([1]; HeLa, Petroselinyl, 10 μM) | mean fluorescence intensity (EGFP mRNA) ([1]; Hela, Myristoleyl, 5 μM) | mean fluorescence intensity (EGFP mRNA) ([1]; Hela, Petroselinyl, 5 μM) | mean fluorescence intensity (EGFP mRNA) ([2]; Oleyl, 2.5 μM) | mean fluorescence intensity (EGFP mRNA) ([2]; Oleyl, 5 μM) | mean fluorescence intensity (EGFP mRNA) ([2]; Oleyl, 10 μM) | mean fluorescence intensity (EGFP mRNA) ([2]; Palmitoleyl, 5 μM) | mean fluorescence intensity (EGFP mRNA) ([2]; Petroselinyl, 2.5 μM) | mean fluorescence intensity (EGFP mRNA) ([2]; Petroselinyl, 5 μM) | mean fluorescence intensity (EGFP mRNA) ([2]; Petroselinyl, 10 μM) | mean luminescent intensity (RLuc pDNA) ([3]; Dodecanal, 15 μM) [RLU] | mean luminescent intensity (RLuc pDNA) ([3]; Oleyl, 15 μM) [RLU] | percentage of gene editing, GFP fluorescence intensity decrease (% of reduction) ([4]; Dodecanal, 5 μM) [%] | percentage of gene editing, GFP fluorescence intensity decrease (% of reduction) ([4]; Dodecanal, 10 μM) [%] | percentage of gene editing, GFP fluorescence intensity decrease (% of reduction) ([4]; Oleyl, 5 μM) [%] | percentage of gene editing, GFP fluorescence intensity decrease (% of reduction) ([4]; Palmitoleyl, 5 μM) [%] | percentage of gene editing, GFP fluorescence intensity decrease (% of reduction) ([4]; Palmitoleyl, 15 μM) [%] | also measured
Ac-RK*LRRK*LRK*-NH2 (Ac-RK(NHNH2)LRRK(NHNH2)LRK(NHNH2)-NH2; not fully specified; printed as Ac-RK*LRRK*LRK*-NH2; also: K*2,K*6,K*9: native or modified lysine (ε-amide to a linker)) [Peptide 9.3] | 3482 | 11661 | 441 | 1322 | 2874 | 9616 | 1416 | 2885 | 466 | 1665 | 1364 | 4636 | 643 | 33244 | 4792 | 7 | 1 | 24 | −21 | −38 | mean fluorescence intensity (EGFP mRNA) ([1]; HeLa, Dodecanal, 2.5 μM): 2347; mean fluorescence intensity (EGFP mRNA) ([1]; Hela, Oleyl, 10 μM): 335; mean fluorescence intensity (EGFP mRNA) ([1]; Hela, Palmitoleyl, 5 μM): 3313; mean fluorescence intensity (EGFP mRNA) ([2]; Palmitoleyl, 10 μM): 1394; mean luminescent intensity (RLuc pDNA) ([3]; Dodecanal, 10 μM): 71221 RLU; mean luminescent intensity (RLuc pDNA) ([3]; Palmitoleyl, 5 μM): −143 RLU; mean luminescent intensity (RLuc pDNA) ([3]; Palmitoleyl, 10 μM): −284 RLU; mean luminescent intensity (RLuc pDNA) ([3]; Palmitoleyl, 15 μM): 3126 RLU; mean luminescent intensity (RLuc pDNA) ([3]; Petroselinyl, 5 μM): −1091 RLU; mean luminescent intensity (RLuc pDNA) ([3]; Petroselinyl, 10 μM): −1142 RLU; mean luminescent intensity (RLuc pDNA) ([3]; Petroselinyl, 15 μM): 147 RLU; percentage of gene editing, GFP fluorescence intensity decrease (% of reduction) ([4]; Dodecanal, 15 μM): −8%; percentage of gene editing, GFP fluorescence intensity decrease (% of reduction) ([4]; Myristoleyl, 15 μM): −11%; percentage of gene editing, GFP fluorescence intensity decrease (% of reduction) ([4]; Oleyl, 10 μM): 14%; percentage of gene editing, GFP fluorescence intensity decrease (% of reduction) ([4]; Petroselinyl, 15 μM): 4%
Ac-RRHK*RLK*RRLK*RL-NH2 (Ac-RRHK(NHNH2)RLK(NHNH2)RRLK(NHNH2)RL-NH2; not fully specified; printed as Ac-RRHK*RLK*RRLK*RL-NH2; also: K*4,K*7,K*11: native or modified lysine (ε-amide to a linker)) [13(Leu-His)] |  |  |  | 45 |  | 112 |  |  |  | 1141 | 629 | −150 | −168 | 62749 |  | −28 | −5 | 7 | 4 | 0 | mean fluorescence intensity (EGFP mRNA) ([2]; Palmitoleyl, 2.5 μM): 4730; mean luminescent intensity (RLuc pDNA) ([3]; Palmitoleyl, 5 μM): 240629 RLU; mean luminescent intensity (RLuc pDNA) ([3]; Palmitoleyl, 10 μM): 77558 RLU; mean luminescent intensity (RLuc pDNA) ([3]; Palmitoleyl, 15 μM): 7639 RLU; mean luminescent intensity (RLuc pDNA) ([3]; Petroselinyl, 5 μM): 213228 RLU; mean luminescent intensity (RLuc pDNA) ([3]; Petroselinyl, 10 μM): 77709 RLU; mean luminescent intensity (RLuc pDNA) ([3]; Petroselinyl, 15 μM): 6882 RLU; percentage of gene editing, GFP fluorescence intensity decrease (% of reduction) ([4]; Myristoleyl, 5 μM): 22%; percentage of gene editing, GFP fluorescence intensity decrease (% of reduction) ([4]; Myristoleyl, 10 μM): −105%; percentage of gene editing, GFP fluorescence intensity decrease (% of reduction) ([4]; Petroselinyl, 5 μM): 18%
Ac-RRLK*RLK*RRLK*RL-NH2 [Peptide 13.3] | 445 | 535 | 427 | 489 | 580 | 497 | 1384 | 853 |  |  | 768 | 1046 | 964 |  |  | 25 | 10 | −1 | −18 | 18 | mean fluorescence intensity (EGFP mRNA) ([1]; HeLa, Petroselinyl, 2.5 μM): 633; mean fluorescence intensity (EGFP mRNA) ([1]; Hela, Dodecanal, 10 μM): 393; mean fluorescence intensity (EGFP mRNA) ([1]; Hela, Myristoleyl, 10 μM): 424; mean fluorescence intensity (EGFP mRNA) ([2]; Dodecanal, 10 μM): 695; mean fluorescence intensity (EGFP mRNA) ([2]; Myristoleyl, 2.5 μM): 1316; mean fluorescence intensity (EGFP mRNA) ([2]; Myristoleyl, 5 μM): 1229; mean fluorescence intensity (EGFP mRNA) ([2]; Myristoleyl, 10 μM): 889; mean luminescent intensity (RLuc pDNA) ([3]; Dodecanal, 5 μM): 295675 RLU; mean luminescent intensity (RLuc pDNA) ([3]; Myristoleyl, 5 μM): 368875 RLU; percentage of gene editing, GFP fluorescence intensity decrease (% of reduction) ([4]; Dodecanal, 15 μM): 20%; percentage of gene editing, GFP fluorescence intensity decrease (% of reduction) ([4]; Myristoleyl, 15 μM): 10%
Ac-RRLK*RLLRRLK*RL-NH2 (Ac-RRLK(NHNH2)RLLRRLK(NHNH2)RL-NH2; not fully specified; printed as Ac-RRLK*RLLRRLK*RL-NH2; also: K*4,K*11: native or modified lysine (ε-amide to a linker)) [Peptide 13.2] |  |  | 273 |  |  |  | 955 | 666 | 791 |  |  |  |  |  | 7233 |  |  | −6 |  |  | mean fluorescence intensity (EGFP mRNA) ([2]; Dodecanal, 5 μM): 678; mean fluorescence intensity (EGFP mRNA) ([2]; Dodecanal, 10 μM): 520; mean luminescent intensity (RLuc pDNA) ([3]; Oleyl, 5 μM): 83689 RLU; mean luminescent intensity (RLuc pDNA) ([3]; Oleyl, 10 μM): 22447 RLU
